Laboratory results from paper PMC10579241, “Impact of trifluoromethyl and sulfonyl groups on the biological activity of novel aryl-urea derivatives: synthesis, in-vitro, in-silico and SAR studies” (Scientific Reports, 2023).
Marks after values point to notes of the source that are not given here.

Assays:
[1] = test system: human lung carcinoma (A549); assay: cells; format: cell-based; settings: 48 h
[2] = test system: colon cancer (HCT116); assay: cells; format: cell-based; settings: Homo sapiens, 48 h
[3] = test system: prostate cancer (PC3); assay: cells; format: cell-based; settings: Homo sapiens, 48 h
[4] = test system: skin cancer (A431); assay: cells; format: cell-based; settings: Homo sapiens, 48 h
[5] = test system: hepatocellular carcinoma cell line (HePG2); assay: cells; format: cell-based; settings: Homo sapiens, 48 h
[6] = test system: osteosarcoma cell line (HOS); assay: cells; format: cell-based; settings: Homo sapiens, 48 h
[7] = test system: pancreatic cancer cell line (PACA2); assay: cells; format: cell-based; settings: Homo sapiens, 48 h
[8] = in vitro; format: cell-based; settings: human, BJ1 normal skin fibroblast cells, 100 μg/mL
[9] = test system: normal skin fibroblast cell line (BJ1); assay: cells; format: cell-based; settings: Homo sapiens, Skin fibroblast, MTT, 48 h
[10] = test system: PALB2; assay: qRT-PCR, PALB2 in PACA2 cells; format: cell-based, human; settings: versus negative untreated sample
[11] = test system: CDKN2A; assay: qRT-PCR, CDKN2A in PACA2 cells; format: cell-based, human; settings: versus negative untreated sample
[12] = test system: BRCA1; assay: qRT-PCR, BRCA1 in PC3 cells; format: cell-based, human; settings: versus negative samples
[13] = test system: BRCA2; assay: qRT-PCR, BRCA2 in PC3 cells; format: cell-based, human; settings: versus negative samples
[14] = test system: EGFR; assay: qRT-PCR, EGFR in A549 cells; format: cell-based, human; settings: versus negative samples
[15] = test system: KRAS; assay: qRT-PCR, KRAS in A549 cells; format: cell-based, human; settings: versus negative samples
[16] = test system: TP53; assay: qRT-PCR, TP53 in HCT116 cells; format: cell-based, human; settings: versus negative samples
Experimental: RNA was extracted from pancreas, prostate, lung and liver cell lines using a total RNA purification kit (Qiagen, Hilden, Germany) according to the manufacturer's instructions. An aliquot of RNA was diluted in RNase-free water to estimate RNA quantity. Aliquots were used immediately for reverse transcription (RT). cDNA synthesis was performed on extracted RNA, which was treated with DNase (Invitrogen, Germany) to remove any possible DNA contamination. The DNase-treated RNA was reverse transcribed into first-strand cDNA using the RevertAid First Strand cDNA Synthesis kit (Fermantas) according to the manufacturer's instructions. Determination of the pancreas, prostate, lung and liver cell line cDNA copy number was carried out using StepOne™ Real-Time PCR System from Applied Biosystems (Thermo Fisher Scientific, Waltham, MA USA). Gene expressions were detected by real-time PCR, which was performed using the Rotor-Gene Q system (Qiagen Company). A 25 µL reaction mixture consisted of 12.5 µL SYBR® Premix Ex TaqTM (TaKaRa, Biotech. Co. Ltd.), 0.5 µL of each primer (10 PMole) (Table 1), 1 µL cDNA (50 ng) and 10.5 µL RNase free water. The optimum amplification conditions were chosen empirically according to each tested gene. Generally, the amplification conditions include initial incubation (95.0 °C for 3 min), then 40 cycles of amplification with denaturation (95.0 °C for 15 s), annealing (55.0 °C for 30 s) and extension (72.0 °C for 30 s) steps then 71 cycles which started at 60.0 °C and then increased about 0.5 °C every 10 s up to 95.0 °C. Mean cycle threshold (Ct) values of triplicate samples are used for analysis. The Ct value indicates the fractional cycle number at which the amount of amplified target reaches a fixed threshold. Data from real-time PCR were analyzed using 2^−∆∆Ct method[38]–[40]. Data were represented as the fold change in target gene expression normalized to a House-Keeping gene (HKG) and relative to the control. β-actin was used as a HKG to normalize input RNA amount, RNA quality and reverse transcription efficiency.

[17] = test system: FASN; assay: qRT-PCR, FASN in HCT116 cells; format: cell-based, human; settings: versus negative samples
[18] = test system: PACA2; assay: DNA damage, comet assay, PACA2; format: cell-based, human
[19] = test system: PC3; assay: DNA damage, comet assay, PC3; format: cell-based, human
[20] = test system: A549; assay: DNA damage, comet assay, A549; format: cell-based, human; settings: of 400 cells analyzed
[21] = test system: HCT116; assay: DNA damage, comet assay, HCT116; format: cell-based, human
[22] = test system: PACA2; assay: DNA fragmentation assay, PACA2; format: cell-based, human
[23] = test system: PC3; assay: DNA fragmentation assay, PC3; format: cell-based, human
[24] = test system: A549; assay: DNA fragmentation assay, A549; format: cell-based, human
[25] = test system: HCT116; assay: DNA fragmentation assay, HCT116; format: cell-based, human

Structure (SMILES): COc1cccc2c1C(=O)c1c(O)c3c(c(O)c1C2=O)C[C@@](O)(C(=O)CO)C[C@@H]3O[C@H]1C[C@H](N)[C@H](O)[C@H](C)O1 [Doxorubicin, reference compound]
- mortality at 100 µg/mL ([1]; 100 μg/mL): 100%
- IC50 ([1]; MTT): 52.1 ± 0.28 µM
- mortality at 100 µg/mL ([2]; HCT-116, 100 μg/mL): 100%
- IC50 ([2]; HCT-116, MTT): 69.2 ± 0.1 µM
- mortality at 100 µg/mL ([3]; 100 μg/mL): 100%
- IC50 ([3]; MTT): 43.8 ± 0.47 µM
- mortality at 100 µg/mL ([4]; A-431, 100 μg/mL): 100%
- IC50 ([4]; A-431, MTT): 45.8 ± 0.15 µM
- mortality at 100 µg/mL ([5]; 100 μg/mL): 100%
- IC50 ([5]; MTT): 39.7 ± 0.18 µM
- mortality at 100 µg/mL ([6]; 100 μg/mL): 100%
- IC50 ([6]; MTT): 24.3 ± 0.24 µM
- mortality at 100 µg/mL ([7]; PaCa-2, 100 μg/mL): 100%
- IC50 ([7]; PaCa-2, MTT): 52.1 ± 0.19 µM
- mortality at 48 h, 100 µg/mL [8]: 100%
- IC50 [9]: 24.8 ± 0.52 µM
- PALB2 gene expression level [10]: significantly reduced
- CDKN2A gene expression level [11]: significantly reduced
- BRCA1 gene expression level [12]: decreased significantly
- BRCA2 gene expression level [13]: decreased significantly
- EGFR gene expression level [14]: significant reduction
- KRAS gene expression level [15]: significant reduction
- TP53 gene expression level [16]: suppression
- FASN gene expression level [17]: suppression
- DNA damaged cells % (mean ± SEM) [18]: 20.25 ± 0.75^a %
- Class 1 (tail length < diameter of nucleus), number of cells ([18]; of 400 cells analyzed): 28
- Class 2 (tail length between 1 and 2 × the diameter of nucleus), number of cells ([18]; of 400 cells analyzed): 26
- Class 3 (tail length > 2 × the diameter of nucleus), number of cells ([18]; of 400 cells analyzed): 27
- No. of cells, Comets ([18]; of 400 cells analyzed): 81
- DNA damaged cells % (mean ± SEM) [19]: 20.76 ± 1.38^b %
- Class 0 (no tail), number of cells ([19]; of 400 cells analyzed): 317
- Class 1 (tail length < diameter of nucleus), number of cells ([19]; of 400 cells analyzed): 39
- Class 2 (tail length between 1 and 2 × the diameter of nucleus), number of cells ([19]; of 400 cells analyzed): 30
- Class 3 (tail length > 2 × the diameter of nucleus), number of cells ([19]; of 400 cells analyzed): 14
- No. of cells, Comets ([19]; of 400 cells analyzed): 83
- Class 0 (no tail), number of cells [20]: 314
- Class 1 (tail length < diameter of nucleus), number of cells [20]: 25
- Class 2 (tail length between 1 and 2 × the diameter of nucleus), number of cells [20]: 32
- Class 3 (tail length > 2 × the diameter of nucleus), number of cells [20]: 29
- No. of cells, Comets [20]: 86
- DNA damaged cells % (mean ± SEM) [21]: 21.26 ± 0.48^ab %
- Class 0 (no tail), number of cells ([21]; of 400 cells analyzed): 315
- Class 1 (tail length < diameter of nucleus), number of cells ([21]; of 400 cells analyzed): 33
- Class 2 (tail length between 1 and 2 × the diameter of nucleus), number of cells ([21]; of 400 cells analyzed): 24
- Class 3 (tail length > 2 × the diameter of nucleus), number of cells ([21]; of 400 cells analyzed): 28
- No. of cells, Comets ([21]; of 400 cells analyzed): 85
- Change (DNA fragmentation versus untreated cells) [22]: 18.00
- DNA fragmentation % M ± SEM ([22]; IC50 concentration, 24 h): 30.1 ± 0.62^b %
- Inhibition ([22]; doxorubicin = 0.0): 0.0
- Change (DNA fragmentation versus untreated cells) [23]: 20.1
- DNA fragmentation % M ± SEM ([23]; IC50 concentration, 24 h): 31.7 ± 0.85^b %
- Inhibition ([23]; doxorubicin = 0.0): 0.0
- Change (DNA fragmentation versus untreated cells) [24]: 19.5
- DNA fragmentation % M ± SEM ([24]; IC50 concentration, 24 h): 30.9 ± 1.64^a %
- Inhibition ([24]; doxorubicin = 0.0): 0.0
- Change (DNA fragmentation versus untreated cells) [25]: 21.00
- Inhibition ([25]; doxorubicin = 0.00): 0.00
